Test results published in patent US20260055106A1, “PARG INHIBITORY COMPOUND” (FORX THERAPEUTICS AG, priority 2021, published 2026).
Where a name gives a salt, the structure may show the parent alone. Read-outs that look alike come from different tables or passages of the source.

What was measured:
NCI-H460 = assay: Cellular viability assay (NCI-H460); format: cell-based; settings: 96 hours incubation, Cell Titer-Glo, read-out: EC50 determined in NCIH-460 cells, Cellular viability assay
Procedure: (§1) NCI-H460 and MDA-MB-436 as PARG-inhibition sensitive cell lines, and U2OS as PARG-inhibition insensitive cell line, were plated at 1000 cells/well, 5000 cells/well and 2000 cells/well, respectively, in 96-well white plates with clear flat bottom. After 24 hours, the compounds were added with the Tecan digital dispenser (D300e), in duplicates. The outer wells of the plate were excluded. After 96 hours of incubation, 150 μl of the growth medium were removed and 50 μl of Cell Titer-Glo (Promega) were added per well. Following an incubation of 10 minutes, luminescence was read using a plate reader (Tecan) for NCI-H460 and U2OS cell lines, and a 2104 EnVision plate reader for MDA-MB-436. Averaged values of the samples were normalized to DMSO treated control samples. Curves were fit as % of the control vs. log of the compound concentration using a 4 parameter log-logistic function: […]

U2OS = assay: Cellular viability assay (U2OS); format: cell-based; settings: Homo sapiens, 96 hours incubation, Cell Titer-Glo, read-out: EC50 determined in U2OS cells, Cellular viability assay
Procedure: as §1

Kinetic solubility assay = format: physicochemical; settings: buffer, aqueous buffer, kinetic from dmso stock, pH 7.4, shake flask, room temperature, HPLC-UV
Procedure: The Kinetic solubility assay employs the shake flask method followed by HPLC-UV analysis. For exemplary compounds, the kinetic solubility was measured according to the following protocol: • 1. Samples were weighed and dissolved in 100% DMSO to make a stock solution of 10 mM. About 100 μL of stock solution is needed to cover this assay. • 2. Test compounds and controls (10 mM in DMSO, 10 μL/tube) were added into the buffer (490 μL/well) which were placed in a Mini-UniPrep filter. The buffer was prepared as the customer's requirement. • 3. The kinetic solubility samples were vortexed for 2 minutes. • 4. The solubility solutions were shaked in an orbital shaker for 24 hr at room temperature. • 5. 200 μL of each solubility solution were transferd into a 96-deep well for analysis when the samples were directly filtered by the syringeless filter device. • 6. The test compound concentration of the filtrate were determined using HPLC-UV. • 7. Three UV standard solutions were injected into HPLC from low to high concentrations, followed by testing of the K.S. supernatant. Testing samples were injected in duplicate.

PARG = biological target: T1, PARG (Homo sapiens, UniProt Q86W56); assay: Cellular PAR chain assay; format: cell-based; settings: U2OS cells
T1 construct: endogenous in cells; host or cells: U2OS
T1 sequence (Q86W56 whole entry): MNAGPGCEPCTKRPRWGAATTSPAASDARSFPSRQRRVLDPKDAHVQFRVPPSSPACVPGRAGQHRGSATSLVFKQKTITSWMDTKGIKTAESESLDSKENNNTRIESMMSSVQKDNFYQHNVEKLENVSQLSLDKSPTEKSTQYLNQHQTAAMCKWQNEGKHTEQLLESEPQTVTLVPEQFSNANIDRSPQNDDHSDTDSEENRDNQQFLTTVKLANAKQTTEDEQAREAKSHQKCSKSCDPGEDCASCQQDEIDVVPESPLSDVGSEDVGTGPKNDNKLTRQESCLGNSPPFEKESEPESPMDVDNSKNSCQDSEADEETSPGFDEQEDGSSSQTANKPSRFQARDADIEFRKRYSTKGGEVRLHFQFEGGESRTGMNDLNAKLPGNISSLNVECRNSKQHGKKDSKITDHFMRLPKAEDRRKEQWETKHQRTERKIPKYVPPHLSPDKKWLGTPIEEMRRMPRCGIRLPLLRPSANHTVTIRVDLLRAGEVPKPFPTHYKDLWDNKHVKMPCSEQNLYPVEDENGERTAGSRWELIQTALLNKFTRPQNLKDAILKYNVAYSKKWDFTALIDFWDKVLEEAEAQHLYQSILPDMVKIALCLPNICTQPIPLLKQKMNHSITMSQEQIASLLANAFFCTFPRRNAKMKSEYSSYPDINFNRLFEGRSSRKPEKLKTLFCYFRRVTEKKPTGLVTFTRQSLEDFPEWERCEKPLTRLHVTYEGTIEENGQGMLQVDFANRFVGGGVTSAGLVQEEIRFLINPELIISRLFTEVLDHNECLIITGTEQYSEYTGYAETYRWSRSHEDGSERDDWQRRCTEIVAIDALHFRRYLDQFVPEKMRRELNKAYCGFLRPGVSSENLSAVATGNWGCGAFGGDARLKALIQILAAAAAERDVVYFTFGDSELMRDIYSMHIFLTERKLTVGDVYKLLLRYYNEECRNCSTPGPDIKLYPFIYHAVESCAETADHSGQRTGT
Procedure: The ability of compounds to inhibit PARG in response to DNA damage, was assessed with U2OS cells pretreated with the compounds for 1 hour, following a 1-hour treatment with or without the DNA alkylating agent temozolomide (TMZ). […] The cells were incubated for 2 hours at room temperature with a mouse monoclonal antibody against poly (ADP) ribose (PAR) polymer. The cells were washed and incubated with an anti-mouse Alexa-488 conjugated secondary antibody for 1 hour at room temperature. Propidium iodide staining was used to determine DNA content in the cells (staining at 4° C. overnight). The fluorescence intensity of the cells was assessed by flow cytometry (Cytoflex from Beckmann) and the percentage of PAR chain positive cells (gated in relation to TMZ+DMSO treated control) was determined. PAR chain positive cells % were fit against the concentration of the compound using a 4 parameter log-logistic function, generating PAR chain EC50 values: […]

human PARG = biological target: T2, human PARG (Homo sapiens, UniProt Q86W56, A967T/C963S/D927K/H446G/I916T/L447S/L473S/M841I/N479S/R811K/S802A/S858P/T924D); assay: PARG enzymatic IC50 assay; format: biochemical; settings: 2 hours incubation with enzyme; substrate ADP-ribose-pNP; absorbance 405 nm; read-out: IC50 determined in PARG enzymatic assay (PARG protein and 2 hours incubation)
T2 construct: human PARG (448-976 [H446G, L447S, L473S, N479S, S802A, R811K, M8411, S858P, 1916T, T924D, D927K, C963S, A967T]); 6His-TwinStrep (protease-cleavable) (N, cleaved yes); host or cells: E. coli BL21 (DE3)
T2 sequence (Q86W56 446-976 H446G/L447S/L473S/N479S/S802A/R811K/M841I/S858P/I916T/T924D/D927K/C963S/A967T): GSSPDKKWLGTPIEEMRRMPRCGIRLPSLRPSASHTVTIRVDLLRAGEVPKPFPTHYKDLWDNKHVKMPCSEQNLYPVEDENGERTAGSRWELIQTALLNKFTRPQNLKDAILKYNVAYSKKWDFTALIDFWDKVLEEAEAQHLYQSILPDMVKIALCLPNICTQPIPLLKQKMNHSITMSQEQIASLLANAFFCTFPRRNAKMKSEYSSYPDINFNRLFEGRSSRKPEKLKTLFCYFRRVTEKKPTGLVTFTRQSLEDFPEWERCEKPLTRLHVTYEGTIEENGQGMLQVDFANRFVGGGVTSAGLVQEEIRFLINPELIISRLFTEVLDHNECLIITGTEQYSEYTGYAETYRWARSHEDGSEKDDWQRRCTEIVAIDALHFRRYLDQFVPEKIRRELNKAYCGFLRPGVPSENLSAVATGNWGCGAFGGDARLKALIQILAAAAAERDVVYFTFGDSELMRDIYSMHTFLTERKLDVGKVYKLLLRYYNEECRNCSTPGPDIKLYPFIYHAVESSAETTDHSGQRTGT
Procedure: A codon optimized gene encoding human PARG (448-976 [H446G, L447S, L473S, N479S, S802A, R811K, M8411, S858P, 1916T, T924D, D927K, C963S, A967T]) was synthesized by Genscript, and cloned into pET15b (NcoI/BamHI) with an N-terminal, Thrombin protease cleavable 6His-TwinStrep tag. Expression of the protein in E. coli BL21 (DE3) was induced by addition of 0.2 mM IPTG to a shake flask culture grown to OD600=0.8 at 37° C. Growth was allowed to continue at 30° C. for a further 20 hours before harvesting by centrifugation and storage of the cell pellet at −80° C. […]
PARG enzyme as incubated with compound or vehicle (DMSO) for 15 minutes or 2 hours in a 384 well plate. After adding the PARG substrate ADP-ribose-pNP, the plate was read for absorbance intensity at 405 nm. The vehicle (DMSO) with high absorbance intensity represents no inhibition of enzymatic reaction while the low control (no enzyme) with low absorbance intensity represents full inhibition of enzymatic reaction. […]
The protocol that was used for enzyme reaction and detection is as follows: • 1. […] Read the plate on a plate reader (e.g., Spark Tecan).

MDA-MB-436 tumor cells = assay: Cell-derived xenograft (CDX) study, MDA-MB-436 xenograft model; format: in vivo, Mus musculus; settings: BALB/c nude mice
Procedure: • Species: Mus musculus • Strain: BALB/c nude • Age: 6-9 weeks • Sex: Female • Body weight: 17-20 g • Animal supplier: Beijing Vital River Laboratory Animal Technology Co., Ltd • Certificate No: 20230209Abzz0619000498
The MDA-MB-436 tumor cells (ATCC, cat #HTB-130) were maintained in vitro as a monolayer culture in L-15 medium supplemented with 10% fetal bovine serum, 10 μg/mL Insulin, 16 μg/mL glutathione and 1% Antibiotic-Antimycotic at 37° C. in an atmosphere of 0% CO2 in air. The cells growing in an exponential growth phase were harvested and counted for tumor inoculation.
BALB/c nude female mice were inoculated subcutaneously at the right flank with MDA-MB-436 tumor cells (10×10^6/mouse) in 0.2 mL of PBS with Matrigel (1:1) for tumor development. The animals were randomized and the treatment was started on day 25 after tumor inoculation when the average tumor volume reached approximately 126 mm^3. Each group consisted of 10 tumor-bearing mice. The compound of formula (I) was administrated to the mice according to the predetermined regimen as shown in the experimental design table 3
Tumor sizes were measured twice weekly in two dimensions using a caliper, and the volumes were expressed in mm^3. The tumor sizes were then used for the calculations of TGI values.
TGI was calculated for each group using the formula: TGI (%)=[1−(Ti−T0)/(Vi−V0)]×100; Ti is the average tumor volume of a treatment group on a given day, T0 is the average tumor volume of the treatment group on the first day of treatment, Vi is the average tumor volume of the vehicle control group on the same day with Ti, and V0 is the average tumor volume of the vehicle group on the first day of treatment.
A one-way ANOVA was performed to compare the tumor volume among groups.

MDA-MB-436 = assay: Cellular viability assay (MDA-MB-436); format: cell-based; settings: Homo sapiens, 96 hours incubation, Cell Titer-Glo, read-out: EC50 determined in MDA-MB-436 cells, Cellular viability assay
Procedure: as §1

Row | Structure (SMILES) | EC50 (NCI-H460; listed as 1b fraction B) [nM] | EC50 (NCI-H460; Homo sapiens, NCI-H460, 96 h) [nM] | EC50 (U2OS) [nM] | solubility kinetic at 24 h (Kinetic solubility assay) [µM] | EC50 (PARG; with treatment of TMZ, read-out: EC50 determined in Cellular PAR chain assay (conditions with treatment of TMZ)) [nM] | EC50 (PARG; without treatment of TMZ, read-out: EC50 determined in Cellular PAR chain assay (conditions without treatment of TMZ)) [nM] | IC50 (human PARG) [nM] | Tumor volume on day 28 (MDA-MB-436 tumor cells; 100 mg/kg PO QD x 28 days, Mean ± SEM) [mm^3] | TGI (MDA-MB-436 tumor cells; 100 mg/kg PO QD x 28 days, day 28) [%] | anti-tumor response (MDA-MB-436 tumor cells; 100 mg/kg, MDA-MB-436 xenograft) | EC50 (MDA-MB-436) [nM]
1 | C[C@H]1CN(c2cc(S(=O)(=O)NC3(C)CC3)cn3c(-c4nnc(C(F)F)s4)ncc23)C[C@H](C)N1 (single isomer, unassigned) [Example 1b] | 22 | 21 | > 2000 |  |  |  |  |  |  |  | 
2 | C[C@H]1CN(c2cc(S(=O)(=O)NC3(C)CC3)cn3c(-c4nnc(C(F)F)s4)ncc23)C[C@H](C)N1 [Example 1, 3-(5-(difluoromethyl)-1,3,4-thiadiazol-2-yl)-8-((3S,5S)-3,5-dimethylpiperazin-1-yl)-N-(1-methylcyclopropyl)imidazo[1,5-a]pyridine-6-sulfonamide formate] |  | < 19 | 11900 | 152 | < 3 | < 3 | 11 | 27 ± 9 | 118.20 | tumor regression seen in all mice | 17
